Test [1] has as its system keratinocyte. Conditions: aCT1 treatment, Student's t-test p<0.0001, n=8, FIG. 9A.
Excerpt: (§1) Student's t-test, *p<0.0001; n=8; mean±SEM. […] Student's t-test, *p<0.0018; n=3; mean±SEM.
The test system of test [2] is keratinocyte. Conditions: aCT1 treatment, Student's t-test p<0.0018, n=3, FIG. 9B.
Excerpt: as §1

Like-named read-outs stand apart in the source and are kept apart here. The star is where a group is joined. Biotin = O=C1N[C@H]2[C@H](CS[C@H]2CCCCC(=O)*)N1; Ahx = NCCCCCC(=O)O

For the substance “{Biotin-Ahx}-RQPKIWFPNRRKPWKKRPRPDDLEI-OH [aCT1]”, the keratinocyte proliferation entry is “an increase in keratinocyte proliferation” with keratinocyte [1]; “accelerated keratinocyte migration and proliferation” in the test on keratinocyte [1] (listed as aCT1 peptide). The keratinocyte migration result with keratinocyte [2] is “an increase in keratinocyte migration”; with keratinocyte [2] (listed as aCT1 peptide), “accelerated keratinocyte migration and proliferation”.

Values taken from patent publication US20250057917A1, “COMPOSITION AND METHODS FOR TREATING RADIATION INDUCED INJURY” (Xequel Bio, Inc., priority 2023, published 2025).
